Results reported in patent US20220296521A1, “CARRIER-BASED FORMULATIONS AND RELATED METHODS” (Respira Therapeutics, Inc., priority 2019, published 2022).

Assay: Tapped density of bulk powder
Assay type: physicochemical
Experimental: “Tapped densities” or ρtapped as used herein were measured in a fashion similar to Method I, as described in USP <616> Bulk Density and Tapped Density of Powders. Tapped densities represent a closer approximation to particle density than poured bulk densities, with measured values that are approximately 20% less than the actual particle density.
Tapped density was determined using a cylindrical cavity of known volume (0.593 cm^3). Powder was filled into this sample holder using a microspatula. The sample cell was then gently tapped on a countertop. As the sample volume decreased, more powder was added to the cell. The tapping and addition of powder steps were repeated until the cavity was filled and the powder bed no longer consolidated with further tapping. The tapped density is defined as the mass of this tapped bed of powder divided by the volume of the cavity.

Compound	Tapped density [g/mL]
CC(C)C(=O)OCC(=O)[C@@]12O[C@H](C3CCCCC3)O[C@@H]1C[C@H]1[C@@H]3CCC4=CC(=O)C=C[C@]4(C)[C@H]3[C@@H](O)C[C@@]12C [Cic-A, ciclesonide]	0.17
CC(C)C(=O)OCC(=O)[C@@]12O[C@H](C3CCCCC3)O[C@@H]1C[C@H]1[C@@H]3CCC4=CC(=O)C=C[C@]4(C)[C@H]3[C@@H](O)C[C@@]12C [Cic-B, ciclesonide]	0.16
